Results: ChEMBL document CHEMBL1240403, “Penicillin-binding protein gene alterations in Streptococcus uberis isolates presenting decreased susceptibility to penicillin” (2010)
≈ marks a conversion by molar mass, not a printed value.

Legend:
[1] = test system: Streptococcus uberis; assay: Antimicrobial activity against Streptococcus uberis isolate ALP 8144 harboring PBP2X E381K/Q554E mutation assessed as inhibition of visible growth after 24 hrs by broth macrodilution method; format: functional; details: isolate ALP 8144, 24 h
[2] = test system: Streptococcus uberis; assay: Antimicrobial activity against Streptococcus uberis ATCC 19436 harboring PAP1A A227T, PBP2B N366I/T402I and PBP2X E381K/D524A/Q554E mutation after 18 passages assessed as inhibition of visible growth by broth macrodilution method; format: functional
[3] = test system: Streptococcus uberis; assay: Antimicrobial activity against Streptococcus uberis ATCC 8749 harboring PAP1A A227T/G386R, PBP2B N366I/T402I and PBP2X E381K/D524A/Q554E mutation after 28 passages assessed as inhibition of visible growth broth macrodilution method; format: functional
[4] = test system: Streptococcus uberis; assay: Antimicrobial activity against Streptococcus uberis isolate 20568 harboring PAP1A G386R, PBP2B N366I/T402I/V570A/P575S and PBP2X E381K/Q554E mutation assessed as inhibition of visible growth after 24 hrs by broth macrodilution method; format: functional; details: isolate 20568, 24 h
[5] = test system: Streptococcus uberis; assay: Antimicrobial activity against Streptococcus uberis ATCC 9529 harboring PAP1A R273P, PBP2B N366I/T402I and PBP2X E381K/Q554E mutation after 28 passages assessed as inhibition of visible growth by broth macrodilution method; format: functional
[6] = test system: Streptococcus uberis; assay: Antimicrobial activity against Streptococcus uberis isolate 1.11 harboring PAP1A G386R, PBP2B T593A and PBP2X E381K/Q554E mutation assessed as inhibition of visible growth after 24 hrs by broth macrodilution method; details: isolate 1.11, 24 h
[7] = test system: Streptococcus uberis; assay: Antimicrobial activity against Streptococcus uberis ATCC 8749 harboring PAP1A R273H, PBP2B N366I/T402I and PBP2X E381K/Q554E mutation after 16 passages assessed as inhibition of visible growth by broth macrodilution method; format: functional
[8] = test system: Streptococcus uberis; assay: Antimicrobial activity against Streptococcus uberis ATCC 19436 assessed as inhibition of visible growth after 24 hrs by broth macrodilution method; format: functional; details: ATCC 19436, 24 h
[9] = test system: Streptococcus uberis; assay: Antimicrobial activity against Streptococcus uberis ATCC 19436 harboring PAP1A A227T, PBP2B N366I/T402I and PBP2X E381K/Q554E mutation after 15 passages assessed as inhibition of visible growth by broth macrodilution method; format: functional
[10] = test system: Streptococcus uberis; assay: Antimicrobial activity against Streptococcus uberis isolate ALP8092 harboring PAP1A G386R and PBP2X E381K/Q554E mutation assessed as inhibition of visible growth after 24 hrs by broth macrodilution method; format: functional; details: isolate ALP8092, 24 h
[11] = test system: Streptococcus uberis; assay: Antimicrobial activity against Streptococcus uberis ATCC 9529 harboring PBP2B N366I/T402I and PBP2X E381K/Q554E mutation assessed as inhibition of visible growth by broth macrodilution method; format: functional
[12] = test system: Streptococcus uberis; assay: Antimicrobial activity against Streptococcus uberis ATCC 9529 harboring PAP1A A227T/G386R, PBP2B N366I/T402I and PBP2X E381K/D524A/Q554E mutation after 39 passages assessed as inhibition of visible growth by broth macrodilution method; format: functional
[13] = test system: Streptococcus uberis; assay: Antimicrobial activity against Streptococcus uberis isolate 20592 harboring and PBP2X E381K/Q554E mutation assessed as inhibition of visible growth after 24 hrs by broth macrodilution method; format: functional; details: isolate 20592, 24 h
[14] = test system: Streptococcus uberis; assay: Antimicrobial activity against Streptococcus uberis ATCC 8749 harboring PAP1A A227T/G386R, PBP2B N366I/T402I and PBP2X E381K/D524A/Q554E mutation after 37 passages assessed as inhibition of visible growth broth macrodilution method; format: functional
[15] = test system: Streptococcus uberis; assay: Antimicrobial activity against Streptococcus uberis ATCC 8749 harboring PBP2B N366I/T402I/V570A/P575S and PBP2X A492E mutation assessed as inhibition of visible growth by broth macrodilution method; format: functional
[16] = test system: Streptococcus uberis; assay: Antimicrobial activity against Streptococcus uberis isolate 20618 harboring PAP1A G386R and PBP2X E381K/Q554E mutation assessed as inhibition of visible growth after 24 hrs by broth macrodilution method; format: functional; details: isolate 20618, 24 h
[17] = test system: Streptococcus uberis; assay: Antimicrobial activity against Streptococcus uberis ATCC 19436 harboring PAP1A A227T/G386R, PBP2B N366I/T402I and PBP2X E381K/D524A/Q554E mutation after 30 passages assessed as inhibition of visible growth by broth macrodilution method; format: functional
[18] = test system: Streptococcus uberis; assay: Antimicrobial activity against Streptococcus uberis ATCC 9529 harboring PAP1A R273P, PBP2B N366I/T402I and PBP2X E381K/Q554E mutation after 11 passages assessed as inhibition of visible growth by broth macrodilution method; format: functional
[19] = test system: Streptococcus uberis; assay: Antimicrobial activity against Streptococcus uberis isolate BL246 harboring PBP2B N366I/T402I and PBP2X E381K/Q554E mutation assessed as inhibition of visible growth after 24 hrs by broth macrodilution method; format: functional; details: isolate BL246, 24 h

Question: How did the MIC [1] turn out when `CC1(C)S[C@@H]2[C@H](NC(=O)Cc3ccccc3)C(=O)N2[C@H]1C(=O)O` [PENICILLIN G] was run?
Answer: 0.25 µg/mL (≈ 0.748 µM)

Question: And the MIC [2]?
Answer: 1 µg/mL (≈ 2.99 µM)

Question: What about the MIC [3] of the same compound?
Answer: 1 µg/mL (≈ 2.99 µM)

Question: And the MIC [4]?
Answer: 0.5 µg/mL (≈ 1.5 µM)

Question: And the MIC [5]?
Answer: 1 µg/mL (≈ 2.99 µM)

Question: What about the MIC [6] of the same compound?
Answer: 0.25 µg/mL (≈ 0.748 µM)

Question: And the MIC [7]?
Answer: 0.5 µg/mL (≈ 1.5 µM)

Question: And the MIC [8]?
Answer: 0.032 µg/mL (≈ 0.0957 µM)

Question: And the MIC [9]?
Answer: 0.5 µg/mL (≈ 1.5 µM)

Question: What about the MIC [10] of the same compound?
Answer: 0.25 µg/mL (≈ 0.748 µM)

Question: What about the MIC [11] of the same compound?
Answer: 0.128 µg/mL (≈ 0.383 µM)

Question: What about the MIC [12] of the same compound?
Answer: 2 µg/mL (≈ 5.98 µM)

Question: What about the MIC [13] of the same compound?
Answer: 0.5 µg/mL (≈ 1.5 µM)

Question: And the MIC [14]?
Answer: 2 µg/mL (≈ 5.98 µM)

Question: And the MIC [15]?
Answer: 0.016 µg/mL (≈ 0.0478 µM)

Question: What about the MIC [16] of the same compound?
Answer: 0.25 µg/mL (≈ 0.748 µM)

Question: And the MIC [17]?
Answer: 2 µg/mL (≈ 5.98 µM)

Question: What about the MIC [18] of the same compound?
Answer: 0.5 µg/mL (≈ 1.5 µM)

Question: And the MIC [19]?
Answer: 0.25 µg/mL (≈ 0.748 µM)
